Data taken from patent US20150259645A1, “METHOD FOR INDUCING IL-2-FREE PROLIFERATION OF GAMMA DELTA T CELLS” (INSERM (INSTITUT NATIONAL DE LA SANTÉ ET DE LA RECHERCHE …, priority 2012, published 2015).

Test system: Vγ9Vδ2 T lymphocytes
Test: CFSE dilution proliferation assay in PBMC culture, flow cytometry
Type: cell-based, human
Conditions: 100 nM BrHPP; six days culture of PBMC; FIG. 1A
Protocol: Fresh blood samples were collected from healthy donors, and PBMC were prepared on a Ficoll-Paque density gradient (Amersham Biosciences AB, Upssala, Sweden) by centrifugation (800 g, 30 min at room temperature).
Cell cultures were performed in complete medium: RPMI 1640 supplemented by penicillin 100 UI/ml, streptomycin 100 μg/ml, L-glutamin 2 mM, sodium pyruvate 1 mM and 10% FCS.
PBMC or PBL were labeled with 0.125 μM CFSE (Invitrogen, France) for 8 min at 37° C. and cultured in 96-well plates (3.10^5 cells per well) in 200 μl of complete medium with or without BrHPP [100 nM], IL-33 [0-1000 ng/ml] and with or without rhIL-2 [10 UI/ml] (Sanofi Aventis, France). After six days in culture CFSE dilution was evaluated in γδ T cells (CD3^+ γ9 TCR cells) by flow cytometry.
The IL-33 forms used in this example was the natural cleavage product of human IL-33 (IL-33 aa 95-270) and the truncated form of human IL-33 (IL-33 aa 112-270).
Anti-TCR γ9-APC and anti-CD3-Pacific blue were used to select Vγ9Vδ2 T lymphocytes by flow cytometry.
We studied the effect of IL-33 in combination with the specific phosphoantigen, BrHPP, on the proliferation of human Vγ9Vδ2 T lymphocytes. […] After six days in culture, the proliferation of Vγ9Vδ2 T lymphocytes was analyzed by the reduction of the CFSE fluorescence intensity on the Vγ9Vδ2 T lymphocytes gated by flow cytometry.

SMILES: CC(O)(CBr)CCOP(=O)(O)OP(=O)(O)O (stereo not shown) [BrHPP]
- proliferation of Vγ9Vδ2 T lymphocytes (CFSE dilution): induces the proliferation
